Data: patent US20230150986A1, “ANTAGONISTS OF THE MUSCARINIC ACETYLCHOLINE RECEPTOR M4” (Vanderbilt University, priority 2019, published 2023)

Target: T1, Human M4 (Homo sapiens, UniProt P08173)
T1 construct: Human or rat M4 cDNA, along with the chimeric G protein Gq,5, were transfected into Chinese hamster ovary (CHO-K1) cells; expressed in transfected cells; host or cells: CHO-K1 (M4/Gqi5/CHO)
T1 sequence (P08173 1-479): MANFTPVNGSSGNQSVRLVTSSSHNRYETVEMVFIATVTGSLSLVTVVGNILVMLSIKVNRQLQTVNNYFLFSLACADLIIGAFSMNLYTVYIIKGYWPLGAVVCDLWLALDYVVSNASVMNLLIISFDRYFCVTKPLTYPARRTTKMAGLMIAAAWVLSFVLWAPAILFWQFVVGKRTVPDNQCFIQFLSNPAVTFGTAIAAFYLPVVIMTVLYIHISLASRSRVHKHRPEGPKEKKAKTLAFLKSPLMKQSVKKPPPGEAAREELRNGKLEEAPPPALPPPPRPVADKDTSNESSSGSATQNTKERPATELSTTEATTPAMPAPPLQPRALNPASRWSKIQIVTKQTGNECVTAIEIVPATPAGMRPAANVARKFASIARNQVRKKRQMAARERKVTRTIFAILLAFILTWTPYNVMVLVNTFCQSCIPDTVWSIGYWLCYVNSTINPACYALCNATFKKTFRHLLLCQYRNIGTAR
Experiment: mAChR M4 cell-based functional assay (calcium flux, decrease of EC80 acetylcholine response)
Settings: for Human M4 Emin: % ACh maximum at 30 μM; for IC50: CHO-K1 cells with human M4 and Gqi5, EC80 acetylcholine
Method in brief: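 CHO-K1 cells stably co-expressing M4 with chimeric Gqi5, loaded with Fluo-4 AM for 50 min at 37 °C; compounds added as 10-point 1:3 curves, then acetylcholine at EC20 (143 s) and EC80 (268 s). Calcium read by FDSS fluorescence ratio; IC50 from four-parameter fit of decrease in EC80 acetylcholine response.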

Question: How did the “Human M4 Emin” value turn out when `Fc1cc(F)c(F)c(-c2ccc(N[C@H]3C[C@@H]4CN(CC5CCOCC5)C[C@@H]4C3)nn2)c1` [Compound 1, (3aR,5s,6aS)-2-((tetrahydro-2H-pyran-4-yl)methyl)-N-(6-(2,3,5-trifluorophenyl)pyridazin-3-yl)octahydrocyclopenta[c]pyrrol-5-amine] was run?
Answer: The value was 4%.

Question: What about the IC50 of the same compound?
Answer: The IC50 was 10.5 nM.

Question: How did the “Human M4 Emin” value turn out when `Fc1cc(F)c(F)c(-c2ccc(N[C@H]3C[C@@H]4CN(Cc5ccccn5)C[C@@H]4C3)nn2)c1` [Compound 2, (3aR,5s,6aS)-2-(pyridin-2-ylmethyl)-N-(6-(2,3,5-trifluorophenyl)pyridazin-3-yl)octahydrocyclopenta[c]pyrrol-5-amine] was run?
Answer: Its value is 4%.

Question: And the IC50?
Answer: Its IC50 is 21.1 nM.
